These results are taken from paper PMC11161644, “An effective and rapidly degradable disinfectant from disinfection byproducts” (Nature Communications, 2024).

Each structure is given as a SMILES string. Where two headings read alike, the source gives them in different places.

Data set [1] concerns E. coli (ATCC 25922). Nature of the data set: Inactivation of E. coli by disinfectants (membrane filter enumeration, contact time 5 min). The format is cell-based, Escherichia coli. The settings on record: for log reduction at 3000 µg/mL: Escherichia coli, ATCC25922, 5 min, dose 3000 mg L-1, 5 min, read-out: Log (N/N0); for E. coli inactivation rate constant k / Log reduction (Mean ± SD): pH 7.2, contact time 5 min; for Log reduction (Mean ± SD): E. coli. Here is the method:
The chemicals and reagents used are detailed in Supplementary Note 1. The bacteria E. coli (ATCC 25922) and S. aureus (ATCC 25923) were cultured aerobically in Luria-Bertani broth (Sigma-Aldrich) and Tryptone Soya broth (Oxoid), respectively, at 37 °C for 16 h. The fungus C. albicans (ATCC 14053) was aerobically cultured in Sabouraud Dextrose broth (Difco) at 37 °C for 24 h. The microorganism cells were harvested by centrifugation at 1200×g (10 min, 4 °C) and resuspended in phosphate-buffered saline (PBS, 10 mM, pH 7.2). The disinfection experiments were performed in PBS solutions (10 mM, pH 7.2) with an initial concentration of E. coli, S. aureus, or C. albicans of 10^6‒10^7 cells per milliliter. A contact time of 5 min was used in accordance with the recommended time range of 0.25–10 min by USEPA for surface disinfection. Preliminary tests were conducted to determine the appropriate range of DBP doses. The appropriate dose range was established when the lowest and highest doses could achieve <1-log and >3-log of microbial inactivation, respectively. Based on the preliminary results, a series of doses of DBPs were added to the cell suspensions at room temperature (22 ± 1 °C). After the contact time of 5 min, the microorganism cells were enumerated following a membrane filter method. Briefly, serial 10-fold dilutions were conducted for the disinfected samples and the control sample without disinfection. Each diluted suspension was subjected to filtration through 0.45-μm membrane, which was then placed on a petri dish. The Petri dishes containing E. coli, S. aureus, and C. albicans were incubated in m-FC medium (Becton Dickinson & Co) at 45 °C for 24 h, in Tryptone Soya broth at 37 °C for 24 h and in Sabouraud Dextrose broth at 37 °C for 24 h, respectively. After incubation, the colony-forming units within a statistically reasonable range (20–80) were counted.
The impact of pH on the disinfection efficiencies of DBPs was examined. E. coli (ATCC 25922) was used as the test strain. The disinfection experiments were performed in 10 mM PBS solutions (pH 6.2, 7.2, and 8.2) with an initial E. coli concentration of 10^6‒10^7 cells per milliliter. To initiate the disinfection, a DBP was dosed with a bacteria suspension at a predetermined concentration. After the given contact time (5 min) at room temperature (22 ± 1 °C), the bacteria were enumerated following the membrane filter method. The bacteria concentrations in the 10 mM PBS solutions (pH 6.2, 7.2, and 8.2) without the addition of DBPs were used as controls.

Data set [2] in a line: UPLC/ESI-tqMS time profile of 2,6-DCQ and its degradation products in simulated seawater (pH 8.2, darkness); OH-DCQ formation. The settings on record: 2,6-DCQ degradation, pH 8.2, darkness. On the procedure: A Waters UPLC system coupled with ESI-tqMS was used to characterize the degradation products of 2,6-DCQ. The UPLC separation was performed using an HSS T3 column (100 × 2.1 mm, 1.8 μm particle size, Waters) with a column temperature of 35 °C. A gradient eluent of methanol–water was applied at a flow rate of 0.4 mL min^−1. The gradient program was set as follows: methanol/water (v/v) ratio changed linearly from 5/95 to 90/10 in the first 8 min and then returned to 5/95 during 8.0‒8.1 min, which was held for 2.9 min for re-equilibration. The ESI-tqMS was set as follows: ESI negative mode, capillary voltage 2.8 kV, cone voltage 10–50 V (depending on analytes), cone gas flow 50 L h^−1, source temperature 120 °C, desolvation temperature 400 °C, desolvation gas flow 800 L h^−1, collision energy 15–50 eV (depending on analytes), collision gas (argon) flow 0.25 mL min^−1, and mass resolution 15 (1-unit resolution).
The degradation of 2,6-DCQ in seawater was simulated by adding 10 mg L^−1 2,6-DCQ to 50 mL ultrapure water, which was adjusted to pH 8.2 with 5 mM sodium carbonate (to simulate the alkalinity in seawater and also to be compatible with the subsequent UPLC/ESI-tqMS analysis). The sample was kept in darkness for 0–24 h, during which the pH of the sample was maintained at 8.1 ± 0.1. At a designated reaction time, 7.5 μL of the sample was injected into the UPLC system. For a nonhalogenated degradation product, the selected ion recording (SIR) mode with a dwell time of 0.05 s was adopted to obtain the retention time. For halogenated degradation products, the multiple reaction monitoring mode with a dwell time of 0.05 s was used to obtain the retention time and the isotopic abundance ratio. To investigate the time-dependent profile of 2,6-DCQ and its degradation products, the peak area of each compound was determined using the SIR mode in the UPLC/ESI-tqMS analysis.
The second aliquot was subjected to analysis of total organic halogen to quantify the collected OH-DCQ. The determination of total organic halogen was based on Standard Method 5320B[52], with modifications of using off-line ion chromatography for halide detection. Briefly, the aliquot was dissolved in 100 mL ultrapure water and acidified to pH 2 with concentrated nitric acid[52] prior to adsorption onto pre-packed activated carbon columns (Mitsubishi). A three-channel adsorption module (TXA03C, Mitsubishi Chemical Analytech) was used for adsorption. An AQF-100 automatic quick furnace (Mitsubishi Chemical Analytech) was used for pyrolysis. During the pyrolysis process, the chlorine atoms in OH-DCQ were converted to chloride. The chloride ion concentration was determined using an ICS-3000 ion chromatography system (Dionex). 2,6-DCQ was used as a standard compound for measuring total organic halogen to determine the recovery of the analysis. The total organic halogen analysis was conducted in duplicate.

With `O=C(O)c1cc(Cl)ccc1O` [5-CSA, 5-chlorosalicylic acid], the log reduction at 3000 µg/mL in data set [1] (pH 6.2, E. coli, pH 6.2) worked out at 0.218; in data set [1] (pH 7.2, E. coli, pH 7.2) it was 0.273; in data set [1] (pH 8.2, E. coli, pH 8.2) it was 0.304. In addition, the “E. coli inactivation rate constant k” value in data set [1] was below 0.01 L mg‒1 h‒1.

Regarding `O=C1C=C(Cl)C(=O)C=C1O` [SIR 157, 3-hydroxyl-6-monochloro-1,4-benzoquinone], the Peak area is 131 in data set [2] (0 h); 1090 in data set [2] (0.25 h); 1291 in data set [2] (0.5 h); 1521 in data set [2] (0.75 h); 1656 in data set [2] (1 h); 1663 in data set [2] (1.25 h). Also, the Peak area in data set [2] (1.5 h) was 1773; in data set [2] (1.75 h), 1891; in data set [2] (2 h), 1830; in data set [2] (2.25 h), 2020; in data set [2] (2.5 h) it was 2128; in data set [2] (2.75 h), 2115. Besides, the Peak area is 2124 in data set [2] (3 h); 2427 in data set [2] (3.25 h); 2418 in data set [2] (3.5 h); 2409 in data set [2] (3.75 h); 2447 in data set [2] (4 h); 2594 in data set [2] (4.5 h). For the same molecule, the Peak area in data set [2] (5 h) is 2821; in data set [2] (5.5 h), 2983; in data set [2] (6 h), 3514; in data set [2] (8 h), 4489; in data set [2] (10 h), 4560; in data set [2] (12 h), 4418. Further, the Peak area in data set [2] (14 h) is given as 4868; in data set [2] (16 h), 4755; in data set [2] (18 h) it was 4648; in data set [2] (20 h), 5024; in data set [2] (24 h), 4289.

On to `O=C1C=C(Cl)C(=O)C(OC2=C(Cl)C(=O)C(Cl)=CC2=O)=C1` [SIR 333], for which the Peak area is on record as 25 in data set [2] (0 h); 566 in data set [2] (0.25 h); 1172 in data set [2] (0.5 h); 1708 in data set [2] (0.75 h); 2037 in data set [2] (1 h); 2462 in data set [2] (1.25 h). Moreover, the Peak area in data set [2] (1.5 h) was 2725; in data set [2] (1.75 h), 2905; in data set [2] (2 h) it was 3055; in data set [2] (2.25 h) it was 3331; in data set [2] (2.5 h), 3689; in data set [2] (2.75 h), 3558. The Peak area in data set [2] (3 h) was 3681; in data set [2] (3.25 h), 3675; in data set [2] (3.5 h), 3524; in data set [2] (3.75 h), 3765; in data set [2] (4 h), 3768; in data set [2] (4.5 h), 3886. Also, the Peak area in data set [2] (5 h) is 4092; in data set [2] (5.5 h), 3835; in data set [2] (6 h) it was 3706; in data set [2] (8 h) it was 3365; in data set [2] (10 h), 2830; in data set [2] (12 h), 2308. The Peak area is reported as 1768 in data set [2] (14 h); 1379 in data set [2] (16 h); 1089 in data set [2] (18 h); 896 in data set [2] (20 h); 463 in data set [2] (24 h).

For `O=C1C=C(Cl)C(=O)C=C1Cl` [2,5-DCQ], the “Log reduction (Mean ± SD)” value is 0.77 ± 0.14 in data set [1] (dose 7.5 mg L−1) and 3.78 ± 0.40 in data set [1] (dose 15 mg L−1).

For the molecule `O=C(O)c1cc(Br)ccc1O` [5-BSA, 5-bromosalicylic acid], the log reduction at 3000 µg/mL in data set [1] (pH 6.2, E. coli, pH 6.2) stood at 0.221; in data set [1] (pH 7.2, E. coli, pH 7.2), 0.132; in data set [1] (pH 8.2, E. coli, pH 8.2) it was 0.331. Moreover, in data set [1], the “E. coli inactivation rate constant k” value is reported as below 0.01 L mg‒1 h‒1.

For the molecule `O=C(O)c1cc(I)ccc1O` [5-ISA, 5-iodosalicylic acid], the log reduction at 3000 µg/mL was 0.247 in data set [1] (pH 6.2, E. coli, pH 6.2); 0.373 in data set [1] (pH 7.2, E. coli, pH 7.2); 0.282 in data set [1] (pH 8.2, E. coli, pH 8.2). The “E. coli inactivation rate constant k” value in data set [1] was below 0.01 L mg‒1 h‒1.
